The results in this text go back to PubChem BioAssay AID2387 (Broad Institute, 2010).

The test relates to Candida albicans CaCi-2 growth (no fluconazole), Alamar Blue. Kind of test: C. albicans growth inhibition without fluconazole, dose response, counter-screen for fluconazole resistance reversal project, CaCi-2 strain, Alamar Blue fluorescence (AID 2387). The note with it: C. albicans CaCi-2 (fluconazole-resistant clinical isolate) growth without fluconazole, 48 h.

The source made the active and inactive calls.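 The calls were made as follows: active = fitted EC50 no more than tenfold above the highest tested concentration; inconclusive = flat fit with 30 to 70% signal loss, or poor fit; inactive = the rest.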

With `CCN1/C(=C/c2ccc3cc(C)ccc3[n+]2CC)Sc2ccc3sccc3c21`, the EC50 was 1.75 µM.
In the case of `Cc1ccc(Nc2nc(N)c([N+](=O)[O-])c(N3CCC(C)CC3)n2)cc1C` it was > 15 µM (inactive); in that of `CC(C)(C)c1ccc(CSc2cnn(C(C)(C)C)c(=O)c2Cl)cc1`, > 16 µM (inactive); in that of `O=[N+]([O-])c1cccc(-c2cc(-c3cc(Br)ccc3O)[nH]n2)c1`, > 15 µM (inactive).
Next, `CCc1nnc(NC(=O)CSc2nc(SC)ns2)s1`: > 16 µM (inactive); `Oc1c(CN2CCN(c3ccccc3)CC2)cc(Br)c2cccnc12`: 2.11 µM; `O=C(NNc1nc2ccc(Cl)cc2s1)c1cc(-c2cccs2)nc2ccccc12`: > 16 µM (inactive).
Next, `CCCn1nnnc1NC(=O)c1ccc2ccccc2c1`: > 15 µM (inactive); `COc1ccccc1OCC(=O)N/N=C/C=C/c1ccc([N+](=O)[O-])o1`: > 16 µM (inactive).
In the case of `COc1ccc(Cl)cc1C(Nc1cccnc1)c1ccc2cccnc2c1O` (stereo not given), the EC50 is 11.8 µM.
In the case of `CCCCCCSc1nnc2[nH]c(=O)cc(N)n12` it was > 15 µM (inactive).
In the case of `Cc1ccc(NC(=O)c2sc3nc(N)c(C#N)cc3c2N)cc1`, the EC50 was > 15 µM (inactive).
Regarding `CCOC(=O)c1c(NC(=S)NCC2CCCO2)sc(C)c1C` (stereo not given), the EC50 is > 16 µM (inactive).
In the case of `Cc1ccc(NC(=O)c2noc(C(C)C)c2[N+](=O)[O-])cc1` it was > 16 µM (inactive); in that of `CC[n+]1c(/C=C2\Sc3ccccc3N2C)ccc2cccc(C)c21`, 2.43 µM; in that of `Cc1cc(C)cc(OCC(=O)NNC(=S)NC(=O)C2CC2)c1`, > 15 µM (inactive).
In the case of `Cc1ccc(C)c(-c2nnc(NC(=O)c3ccco3)o2)c1` it was > 16 µM (inactive); in that of `O=C(/C(=N/N=C/c1ccc(O)c(O)c1O)c1ccccc1)c1ccccc1`, > 15 µM (inactive); in that of `CCN(CC)c1ccc(/C=N/NC(=O)c2cccc(S(=O)(=O)N3CCOCC3)c2)c(O)c1`, > 16 µM (inactive).
With `O=c1c2cc(Br)ccc2nc(-c2cccc(C(F)(F)F)c2)n1O`, the EC50 was 14.3 µM.
With `C=CCc1c(C)c(C#N)c2nc3ccccc3n2c1NCCN(C)C`, the EC50 is > 15 µM (inactive).
In the case of `CC(C)C(=O)NC(c1cccs1)c1cc([N+](=O)[O-])c2cccnc2c1O` (stereo not given) it was 12.9 µM; in that of `O=C(CCS(=O)(=O)c1ccc(Cl)cc1)Nc1nc(-c2ccncc2)cs1`, > 15 µM (inactive).
As for `CCOC(=O)N1C(=O)C2(CCCCC2)N(c2ccccc2Cl)C1=S`, the concentration for a half-maximal effect (EC50) was 14.6 µM.
Regarding `COc1ccc(-n2nc(C(=O)NCC(=O)N3CCN(c4ccccc4)CC3)c3ccccc3c2=O)c(OC)c1`, the EC50 was > 16 µM (inactive).
For `O=C(NNC(=S)NC(=O)c1ccc(Br)cc1)c1ccc([N+](=O)[O-])cc1`, the EC50 was > 16 µM (inactive).
Next, `Cc1cccc(C(=O)CC(=O)c2cc(Cl)ccc2O)c1`: > 15 µM (inactive).
Next, `S=c1[nH]nc(C2CCCCC2)n1/N=C/c1ccc(Br)s1`: > 15 µM (inactive).
In the case of `CCNc1nc(N)nc(-c2cc(Cl)ccc2O)n1` it was > 15 µM (inactive).
Regarding `CCCC(=O)NC(c1ccc(N(C)C)cc1)c1ccc2cccnc2c1O` (stereo not given), the EC50 was > 16 µM (inactive).
Next, `O=C(Nc1nnc(-c2ccc3c(c2)CCCC3)o1)c1ccccc1`: 9.67 µM; `O=C(Cc1ccc(Cl)cc1)NNC(=S)NC(=O)c1cccs1`: > 16 µM (inactive).
As for `C=CCN(CC=C)Cc1c(O)ccc2c(=O)c(-c3ccccc3)coc12`, the EC50 was > 15 µM (inactive).
Next, `COc1ccc(N(CC(=O)Nc2ccccc2C(N)=O)S(=O)(=O)c2ccc(C)c([N+](=O)[O-])c2)cc1`: > 16 µM (inactive); `N/C(Cc1ccccc1)=N\OC(=O)c1cccc2ccccc12`: > 15 µM (inactive).
In the case of `CC(C)n1cc(/C=C/c2cc[n+](C)cc2)c2ccccc21` it was > 15 µM (inactive); in that of `CCc1cc(-c2n[nH]c(=S)n2-c2ccccc2C)cs1`, > 16 µM (inactive); in that of `Cc1ccc2nc(/C(C#N)=C\c3ccc(OC(=O)c4cccs4)cc3)[nH]c2c1`, > 16 µM (inactive).
Next, `O=C(Nc1nc2ccc(SC(F)F)cc2s1)c1ccc(NS(=O)(=O)c2ccc(F)c(F)c2)cc1`: > 15 µM (inactive); `C=CCn1c(N)nc2ccccc21`: > 16 µM (inactive).

A word on the EC50: it is the concentration at which the effect is half-maximal.
